Experimental data published in publication PMC5512577, “PDE6δ-mediated sorting of INPP5E into the cilium is determined by cargo-carrier affinity” (Nature Communications, 2016).
Read-outs that look alike come from different tables or passages of the source. Peptide text beside a SMILES is read from it. * marks the point of attachment. FITC = O=C1OC2(c3ccc(O)cc3Oc3cc(O)ccc32)c2ccc(NC(=S)*)cc21; Farnesyl = CC(C)=CCC/C(C)=C/CC/C(C)=C/C*

Legend:
[1] = system: PDE6δ/farnesylated peptide complex; assay: Fluorescence polarization release of farnesylated peptide from PDE6δ by Arl proteins; type: biochemical
Text: Towards an explanation for the possible sorting mechanism that leaves some PDE6δ-cargo in the cell body but allows others to be enriched in the cilia we turned to the release activities of Arl2 and Arl3. […] While Arl2 is a non-ciliary protein, Arl3 localizes along the length of the cilium. Using fluorescence polarization, we measured the release of INPP5E and Rheb peptides from PDE6δ by the addition of Arl2 or Arl3 bound to the non-hydrolysable GTP analogue GppNHp. […] To compare the cargo release kinetics of Arl2·GppNHp and Arl3·GppNHp, we measured the dissociation rate constants of INPP5E and Rheb peptides from PDE6δ in the presence and absence of Arl3·GppNHp or Arl2·GppNHp, by adding a large excess of unlabelled peptide to silence the back reaction. […]
Figure 2 INPP5E release from PDE6δ by Arl2·GppNHp and Arl3·GppNHp. (a) Fluorescence polarization measurements of 0.5 μM FITC-labelled Rheb peptide followed by addition of 0.5 μM PDE6δ and the addition of 5 μM Arl2·GppNHp or Arl3·GppNHp (arrow). (b) Fluorescence polarization measurements of 0.2 μM TAMRA-labelled INPP5E peptide followed by the addition of 0.2 μM PDE6δ (arrow) and 5 μM Arl2·GppNHp or Arl3·GppNHp (arrow). […]
(§1) All fluorescence polarization measurements were performed at 20 °C in a buffer containing 25 mM Tris-HCl (pH 7.5), 50 mM NaCl and 3 mM DTE. […]
Arl3•GTP. Fluorescence polarization measurements of 0.2 µM TAMRA-labeled […]

[2] = system: PDE6δ; assay: Stopped-flow fluorescence polarization, dissociation of peptides from PDE6δ with and without Arl2/Arl3·GppNHp; type: binding; details: 1 μM PDE6δ, 0.2 μM labelled peptide, 100-fold excess unlabelled peptide, 20 °C, ± s.d., n=4
Text: Towards an explanation for the possible sorting mechanism that leaves some PDE6δ-cargo in the cell body but allows others to be enriched in the cilia we turned to the release activities of Arl2 and Arl3. […] While Arl2 is a non-ciliary protein, Arl3 localizes along the length of the cilium. Using fluorescence polarization, we measured the release of INPP5E and Rheb peptides from PDE6δ by the addition of Arl2 or Arl3 bound to the non-hydrolysable GTP analogue GppNHp. […] To compare the cargo release kinetics of Arl2·GppNHp and Arl3·GppNHp, we measured the dissociation rate constants of INPP5E and Rheb peptides from PDE6δ in the presence and absence of Arl3·GppNHp or Arl2·GppNHp, by adding a large excess of unlabelled peptide to silence the back reaction. […] The presence of Arl3·GppNHp or Arl2·GppNHp has a similar acceleration effect on the dissociation rate of Rheb peptide from PDE6δ (koff=27.2±0.7 and 15.3±0.3 s^−1, respectively, ±indicates s.d., n=4) (Fig. 2c,d).
Figure 2 INPP5E release from PDE6δ by Arl2·GppNHp and Arl3·GppNHp. (a) Fluorescence polarization measurements of 0.5 μM FITC-labelled Rheb peptide followed by addition of 0.5 μM PDE6δ and the addition of 5 μM Arl2·GppNHp or Arl3·GppNHp (arrow). (b) Fluorescence polarization measurements of 0.2 μM TAMRA-labelled INPP5E peptide followed by the addition of 0.2 μM PDE6δ (arrow) and 5 μM Arl2·GppNHp or Arl3·GppNHp (arrow). (c–f) Stopped-flow fluorescence polarization kinetic experiment where complexes of 1 μM PDE6δ with either 0.2 μM of FITC-labelled Rheb peptide (c,d) or TAMRA-labelled farnesylated INPP5E peptide (e,f) were mixed with 100-fold excess of unlabelled peptide and 10 μM of Arl2 (c,e) or Arl3 (d,f) as indicated.
as §1

[3] = system: PDE6δ; assay: Stopped-flow fluorescence polarization kinetics of mantGppNHp-loaded Arl proteins with PDE6δ; type: binding; details: for association rate constant kon with PDE6δ: 0.2 μM mantGppNHp-loaded Arl protein, increasing PDE6δ; for association rate constant kon with PDE6δ / dissociation rate constant koff from PDE6δ: 20 °C; for association rate constant kon with PDE6δ / dissociation rate constant koff from PDE6δ / Kd: n=4; for dissociation rate constant koff from PDE6δ: 2 μM PDE6δ with 0.2 μM mantGppNHp-loaded Arl protein, 200-fold excess unlabelled Arl protein; for Kd: calculated from kinetic constants, ± s.d., read-out: equilibrium dissociation constant Kd with PDE6δ (Kd=koff/kon)
Protocol: Previously we have shown that the N-terminal helix of Arl3 is important to release myristoylated cargo from a complex with the shuttle factor UNC119 (ref. [30]). To find out whether the N-terminus of Arl3 and/or Arl2 has a similar if any role in the interaction with PDE6δ, fluorescence polarization measurements using full-length Arl3 (Arl3^fl) or an N-terminal truncated form (Arl3^ΔN) were performed. […] To investigate the role of the N-terminal helix of Arl3 in the release mechanism, we measured association and dissociation rate constants to determine the affinity of PDE6δ towards Arl2 and Arl3 in both full-length and N-terminal truncated forms. Association rate constants between the four proteins Arl3^fl, Arl3^ΔN, Arl2^fl and Arl2^ΔN are rather similar although association is almost twice as fast for full-length Arl3 as compared with Arl2 (Fig. 3a,b). […] The Kd values for Arl2^fl and Arl3^fl differ from previously determined values, likely because of the different techniques used.
Figure 3 Contribution of the N-terminal helix of Arl3 to the binding affinity with PDE6δ. (a) Stopped-flow fluorescence polarization kinetic measurements of the association of 0.2 μM mantGppNHp loaded Arl proteins with increasing concentrations of PDE6δ. The observed pseudo-first order rate constants (kobs) are plotted against PDE6δ concentration. (b) Bar charts of the association rate constants (kon) determined in a. (c,d) Stopped-flow fluorescence polarization kinetic experiments where complexes of 2 μM PDE6δ with 0.2 μM of full-length (Arl^fl) or N-terminally deleted (Arl^ΔN) mantGppNHp loaded Arl proteins as indicated were mixed with 200-fold excess of unlabelled Arl proteins to determine koff. (e) Bar charts of the dissociation rate constants (koff) from experiments in c,d. (f) Bar charts of the equilibrium dissociation constants (Kd) of complexes between PDE6δ and Arl proteins as determined from the kinetic constants in c,e. Error bars indicate s.d., n=4. TEXT PRINTED IN THE PICTURE: (b) Arl3^fl: kon (μM^-1s^-1): 5.97 | (b) Arl3^ΔN: kon (μM^-1s^-1): 4.25 | (b) Arl2^fl: kon (μM^-1s^-1): 2.25 | (b) Arl2^ΔN: kon (μM^-1s^-1): 3.09 | (e) Arl3^fl: koff (s^-1): 0.035 | (e) Arl3^ΔN: koff (s^-1): 0.92 | (e) Arl2^fl: koff (s^-1): 0.33 | (e) Arl2^ΔN: koff (s^-1): 0.98 | (f) Arl3^fl: kd (nM): 5.84 | (f) Arl3^ΔN: kd (nM): 217 | (f) Arl2^fl: kd (nM): 149 | (f) Arl2^ΔN: kd (nM): 319
All fluorescence polarization measurements were performed at 20 °C in a buffer containing 25 mM Tris-HCl (pH 7.5), 50 mM NaCl and 3 mM DTE. For the titration measurement, data were recorded with Fluoromax-4 spectrophotometer (HORIBA Jobin Yvon, Munich, Germany) with excitation and emission wavelengths at 530 and 580 nm for TAMRA-labelled INPP5E peptide and at 495 and 520 nm for fluorescein-labelled Rheb peptide. The kinetic measurements were monitored by a stopped-flow apparatus (Applied Photophysics) in the polarization mode using an excitation wavelength of 366 nm and filter with 420 nm cutoff for mantGppNHp bound Arl protein, excitation wavelength of 495 nm and filter with 520 nm cutoff for fluorescein-labelled Rheb peptide and excitation wavelength of 530 nm and filter with 570 nm cutoff for TAMRA-labelled INPP5E peptide. Data analysis was done with GraFit 5.0 program (Erithracus Software). Concentrations used for each experiment are indicated in the corresponding figure legend.

Row | Compound | release of peptide from PDE6δ by Arl2·GppNHp or Arl3·GppNHp ([1]; 0.5 μM FITC-Rheb peptide + 0.5 μM PDE6δ or 0.2 μM TAMRA-INPP5E peptide + 0.2 μM PDE6δ, 5 μM Arl·GppNHp) | koff from PDE6δ in presence of Arl2·GppNHp ([2]; 10 μM Arl2·GppNHp) [s⁻¹] | koff from PDE6δ in presence of Arl3·GppNHp ([2]; 10 μM Arl3·GppNHp) [s⁻¹] | intrinsic dissociation rate koff from PDE6δ ([2]; absence of Arl2/3) [s⁻¹] | release of INPP5E peptide from PDE6δ by Arl3 form ([1]; 0.2 μM TAMRA-labelled INPP5E peptide, 0.2 μM PDE6δ, 5 μM Arl3fl or Arl3ΔN) | association rate constant kon with PDE6δ [3] [M⁻¹ s⁻¹] | association rate constant kon with PDE6δ ([3]; listed as Arl3^ΔN) [M⁻¹ s⁻¹] | dissociation rate constant koff from PDE6δ [3] [s⁻¹] | dissociation rate constant koff from PDE6δ ([3]; listed as Arl3^ΔN) [s⁻¹] | increase of affinity to PDE6δ by the N-terminal helix ([3]; Arl3 full-length versus ΔN) [fold] | Kd ([3]; listed as Arl3^ΔN) [nM] | Kd [3] [nM]
1 | COC(=O)[C@H](CSC/C=C(\C)CC/C=C(\C)CCC=C(C)C)NC(=O)[C@H](CO)NC(=O)[C@H](CO)NC(=O)[C@H](CCCCN)NC(=O)CNC(=O)[C@H](CCC(N)=O)NC(=O)[C@H](CO)NC(=S)Nc1ccc2c(c1)C(=O)OC21c2ccc(O)cc2Oc2cc(O)ccc21 [Rheb peptide] ({FITC}-SQGKSSC(Farnesyl)-OMe; N-terminus and C-terminus assumed) | can be released by both Arl2·GppNHp and Arl3·GppNHp | 15.3 ± 0.3 | 27.2 ± 0.7 | 0.95 ± 0.004 |  |  |  |  |  |  |  | 
2 | Arl3^fl: full-length Arl3, GppNHp or mantGppNHp loaded |  |  |  |  | unable to release the INPP5E peptide | 5.97e+06 | 4.25e+06 | 0.035 | 0.92 | 37 | 217 ± 4.3 | 5.84
